One block for each molecule: values may come before it.
Assays:
[1] = Encapsulation efficiency by Ribogreen assay; format: physicochemical; conditions: formulated at pH 5
Text: As used herein, “encapsulated” can refer to a nanoparticle that provides an active agent or therapeutic agent, such as a nucleic acid (e.g., a messenger RNA), with full encapsulation, partial encapsulation, or both. In a preferred embodiment, the nucleic acid is fully encapsulated in the nanoparticle. In the context of nucleic acid therapeutic agents, full encapsulation may be determined by a Ribogreen® assay. RiboGreen® is an ultra-sensitive fluorescent nucleic acid stain for quantitating oligonucleotides and single-stranded DNA or RNA in solution (available from Thermo Fisher Scientific—US).
Nanoparticles containing compound 3:DOPE:cholesterol:DMG-PEG2k at molar ratios of 1:0.25:0.9625:0.0375 and RNA at two different weight ratios were formulated using NanoAssemblr Benchtop (Precision NanoSystems Inc, Vancouver, BC, Canada)). RNA was diluted with DNase/RNase-Free, endotoxin free distilled water and sterile acetate buffer to a final desired pH. Total flow rate was maintained at 8 mL per min at a 3:1 ratio of aqueous to organic phase for formulating on the Benchtop. Using glassware depyrogenated by heating at 250° C. for 24 h, nanoparticles were dialyzed against sterile, endotoxin-free PBS using 20,000 molecular weight cutoff dialysis. Dialyzed nanoparticles were sterile filtered using 0.2 micron poly(ether sulfone) filters and characterized with a Zetasizer NanoZS machine (Malvern). The size distributions were characterized by a single peak with a low polydispersity index. Encapsulation efficiency was measured to be 95% for the nanoparticle composition containing compound 3 and SEAP mRNA or SEAP replicon RNA (formulated at pH 5) using Ribogreen® assay (Geall et al. 10.1073/pnas.1209367109 which is incorporated herein by reference as if fully set forth).
(§1) Nanoparticles containing the compound 8:cholesterol:DOPE:DMG-PEG2k at molar ratios of 1:2:1.5:0.0375 were formulated using NanoAssemblr Benchtop (Precision NanoSystems Inc, Vancouver, BC, Canada)). RNA was diluted with Dnase/Rnase-Free, endotoxin free distilled water and sterile citrate buffer to a final desired pH. Total flow rate was maintained at 8 mL per min at a 3:1 ratio of aqueous to organic phase for formulating on the Benchtop. Using glassware depyrogenated by heating at 250° C. for 24 hours, nanoparticles were dialyzed against sterile, endotoxin-free PBS using 20,000 molecular weight cutoff dialysis. Dialyzed nanoparticles were sterile filtered using 0.2 micron poly(ether sulfone) filters and characterized with a Zetasizer NanoZS machine (Malvern). The size distributions were characterized by a single peak with a low polydispersity index. Encapsulation efficiency was measured to be 89% for the nanoparticle composition containing compound 8 and Replicon SEAP RNA (formulated at pH 5) using Ribogreen® assay.
as §1, with “8 or compound 9:cholesterol:DOPE DMG-PEG2k” for “8:cholesterol:DOPE:DMG-PEG2k”, “7,000” for “20,000”, “81%” for “89%”, “Luciferase Ψ mRNA” for “Replicon SEAP RNA”, “assay. Encapsulation efficiency was measured to be 82% for the nanoparticle composition containing compound 9 and Luciferase Ψ mRNA (formulated at pH 5). […]” for “assay.”

SEAP expression = assay: In vivo SEAP production in mouse serum (Phospha-Light assay); parameters: species or system mice
[2] = Hydrodynamic size measurement by dynamic light scattering (Zetasizer); format: physicochemical; conditions: for Z average: DOPE, DMG-PEG 2000 and SEAP Replicon RNA; for Z average (size of strongest intensity): FIG. 4; for Z average (size of strongest intensity) / polydispersity index: compound 8 and SEAP RNA, hand mixing
Method: Additionally, with reference to FIG. 2, nanoparticles were formulated by mixing 21 μl of an ethanol phase containing compound 5 or compound 6, cholesterol, DOPE, and DMG PEG 2000 (PEG-lipid, Avanti Polar Lipids) at molar ratio of 1:2:1.5:0.0375 with 63 μl of SEAP Replicon RNA encoding secreted embryonic alkaline phosphatase (diluted with UltraPure, DNase/RNase-free, endotoxin-free distilled water (Invitrogen) and sterile 100 mM (pH 5) citrate buffer to a final citrate concentration of 10 mM. The resulting nanoparticles contained 4:1 mass ratio of compound 5 or compound 6 to RNA. Formulations were diluted 100-fold for analysis of particle size distribution, Z-average, and derived count rate using a Zetasizer Nano ZS (Malvern Panalytical).
The “Z average” of the nanoparticle composition containing compound 5 or compound 6, cholesterol, DOPE, DMG-PEG 2000 and SEAP Replicon RNA as function of size was determined by dynamic light scattering (DLS). […] Referring to FIG. 2, the size distributions were characterized with a low polydispersity index, indicating a relatively monodisperse size.
Reference to FIG. 4, nanoparticles were formulated by mixing 21 μl of an ethanol phase containing Compound 8, cholesterol, DOPE, and DMG PEG 2000 (PEG-lipid, Avanti Polar Lipids) at molar ratio of 1:2:1.5:0.0375 with 63 μl of Replicon RNA encoding secreted embryonic alkaline phosphatase (SEAP) diluted with UltraPure, DNase/RNase-free, endotoxin-free distilled water (Invitrogen) and sterile 100 mM (pH 5 or pH3) citrate buffer to a final citrate concentration of 10 mM. The derived NPs were characterized with a Zetasizer NanoZS machine (Malvern). The size distributions were characterized by a single peak with a low polydispersity index.
FIG. 4 illustrates distribution of the nanoparticle composition measured as the intensity (Z average) based on size (d.nm; diameter in nm) of the nanoparticles. Referring to FIG. 4, the “Z average” of the nanoparticle composition containing compound 8 and SEAP RNA as function of size was determined by dynamic light scattering (DLS). […] The polydispersity index of nanoparticles formulated with buffer pH 3 and pH 5 is 0.13 and 0.11, respectively, indicating a relatively monodisperse size.
as §1
The “Z average” of the nanoparticle composition containing compound 8, cholesterol, DOPE, DMG-PEG 2000 and SEAP Replicon RNA as function of size was determined by dynamic light scattering (DLS). […] Referring to Table 2, the size distributions were characterized with a low polydispersity index, indicating a relatively monodisperse size.
Nanoparticles containing the compound 8 or compound 9:cholesterol:DOPE DMG-PEG2k at molar ratios of 1:2:1.5:0.0375 were formulated using NanoAssemblr Benchtop (Precision NanoSystems Inc, Vancouver, BC, Canada)). RNA was diluted with Dnase/Rnase-Free, endotoxin free distilled water and sterile citrate buffer to a final desired pH. […]

[3] = as above; format: physicochemical; conditions: cholesterol
[4] = cholesterol:DOPE:DMG-PEG2k nanoparticles with Luciferase Ψ mRNA
[5] = Table 3, DOPE, DMG-PEG 2000 and Luciferase Ψ mRNA
[6] = cholesterol:DSPC:DMG-PEG2k 50:38.5:10:1.5 nanoparticles with SEAP Ψ mRNA
[7] = FIG. 7, DSPC, DMG-PEG 2000 and SEAP Ψ mRNA

SMILES: CCCCCCCCCCSSCCCCCCOC(=O)CCN(CCCCN(C)CCCNC(=O)CCCCCCC/C=C\C[C@@H](O)CCCCCC)CCC(=O)OCCCCCCSSCCCCCCCCCC [Compound 3]
Encapsulation efficiency ([1]; nanoparticles compound 3:DOPE:cholesterol:DMG-PEG2k with SEAP mRNA or SEAP replicon RNA): 95%
SEAP protein production in vivo (SEAP expression; FIG. 1, SEAP replicon RNA and SEAP mRNA formulated with compound 3): resulted in SEAP protein production
SEAP expression in mouse serum, 10:1 versus 15:1 compound 3:RNA (SEAP expression; formulations with 10:1 compound 3:RNA, mice, 2 μg SEAP mRNA or SEAP replicon RNA, serum 16 hrs later): higher expression

SMILES: CCCCCCCCCCCCn1cc(COC(=O)CCN(CCCN(C)CCCNCCCO[C@H]2O[C@@H](COC(C)=O)[C@H](OC(C)=O)[C@@H](OC(C)=O)[C@@H]2OC(C)=O)CCC(=O)OCc2cn(CCCCCCCCCCCC)nn2)nn1 [Compound 6]
Z average ([2]; FIG. 2, hand mixing with cholesterol, pH 5 citrate, 4:1 mass ratio to RNA): 122.0 nm·days

SMILES: CCCCCCCCCCCCCCCCOC(=O)CCN(CCCCN(C)CCCNCCCOP(=O)(OCC)OCC)CCC(=O)OCCCCCCCCCCCCCCCC [Compound 8]
Encapsulation efficiency [1, 4]: 81%
Encapsulation efficiency ([1]; compound 8:cholesterol:DOPE:DMG-PEG2k with Replicon SEAP RNA, microfluidic mixing): 89%
Z average (size of strongest intensity) ([2]; buffer pH 3): 133.7 nm·days
Z average (size of strongest intensity) ([2]; buffer pH 5): 191.3 nm·days
Z average ([2]; Table 2, compound 8, cholesterol, microfluidic mixing): 78.2 nm·days
polydispersity index ([2]; buffer pH 3): 0.13
polydispersity index ([2]; buffer pH 5): 0.11
Z average [3, 5]: 76.5 nm·days

More lines, main results first:

Encapsulation efficiency [1, 4]: 82%
Z average [3, 5]: 80.9 nm·days
SMILES: CCCCCCCCCCCCCCCCOC(=O)CCN(CCCCN(C)CCCNCCCO[C@@H]1O[C@H](COC(C)=O)[C@@H](OC(C)=O)[C@H](OC(C)=O)[C@H]1OC(C)=O)CCC(=O)OCCCCCCCCCCCCCCCC [Compound 9]

Encapsulation efficiency [1, 6]: 89%
Z average [3, 7]: 129.5 nm·days
SMILES: CCCCCCCCCCCCOC(=O)CCSSCCC(=O)NCCCN(C)CCCN(CCC(=O)OCCCCCCCC)CCC(=O)OCCCCCCCC [Compound 13]
SEAP expression in mice serum, compound 13 compared to compound 18 (SEAP expression; FIG. 8, BALB/c mice, approximately 2 μg, SEAP Ψ mRNA nanoparticles formulated at pH 5): better SEAP expression

Encapsulation efficiency [1, 6]: 84%
Z average [3, 7]: 74.8 nm·days
SMILES: CCCCCCCCCCCCOC(=O)CCCCCCC(=O)NCCCN(C)CCCN(CCC(=O)OCCCCCCCC)CCC(=O)OCCCCCCCC [Compound 18]

— patent US12491262B2, “Gene delivery agents” (TIBA Biotech LLC, priority 2023, dated 2025)
